Reference: article PMC4893628, “Chalcone-based Selective Inhibitors of a C4 Plant Key Enzyme as Novel Potential Herbicides” (Scientific Reports, 2016)
Where two headings read alike, the source gives them in different places.

How the values were obtained:
F. pringlei PEPC = molecular target: T1, F. pringlei PEPC (Flaveria pringlei, UniProt Q01647); test: PEPC coupled spectrophotometric assay, C3 PEPC; format: biochemical
T1 construct: the full-length ppcA gene of PEPC from F. trinervia (EMBL-Bank X61304) and F. pringlei (EMBL-Bank Z48966) were cloned in pETEV16b; made in house; host or cells: Escherichia coli BL21-Gold(DE3)
T1 sequence (Q01647 1-967): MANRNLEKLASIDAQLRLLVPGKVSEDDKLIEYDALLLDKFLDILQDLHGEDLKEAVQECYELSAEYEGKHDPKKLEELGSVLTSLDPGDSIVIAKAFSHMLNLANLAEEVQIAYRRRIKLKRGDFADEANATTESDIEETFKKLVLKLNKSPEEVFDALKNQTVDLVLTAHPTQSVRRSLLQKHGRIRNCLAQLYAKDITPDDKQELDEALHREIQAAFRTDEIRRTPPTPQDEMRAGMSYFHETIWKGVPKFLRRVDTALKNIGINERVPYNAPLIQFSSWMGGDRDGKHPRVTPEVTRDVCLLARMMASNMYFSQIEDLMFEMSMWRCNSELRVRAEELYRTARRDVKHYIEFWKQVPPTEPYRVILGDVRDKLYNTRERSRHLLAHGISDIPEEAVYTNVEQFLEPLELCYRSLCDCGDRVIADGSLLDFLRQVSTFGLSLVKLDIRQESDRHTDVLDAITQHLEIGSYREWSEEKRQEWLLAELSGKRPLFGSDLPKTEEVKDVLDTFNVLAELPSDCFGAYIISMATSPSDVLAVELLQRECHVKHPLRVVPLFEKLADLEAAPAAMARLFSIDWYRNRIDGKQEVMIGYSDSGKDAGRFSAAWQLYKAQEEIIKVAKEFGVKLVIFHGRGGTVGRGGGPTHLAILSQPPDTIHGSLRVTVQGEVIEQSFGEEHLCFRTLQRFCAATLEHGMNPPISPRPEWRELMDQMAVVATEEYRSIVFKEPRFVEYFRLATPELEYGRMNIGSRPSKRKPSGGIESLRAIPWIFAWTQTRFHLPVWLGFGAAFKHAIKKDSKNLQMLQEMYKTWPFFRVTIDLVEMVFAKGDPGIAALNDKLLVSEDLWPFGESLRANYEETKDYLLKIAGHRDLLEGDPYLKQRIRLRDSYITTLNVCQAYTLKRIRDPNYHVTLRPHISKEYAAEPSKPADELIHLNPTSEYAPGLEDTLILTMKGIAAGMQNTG
Protocol: The IC50 values of small molecule compounds on F. pringlei and F. trinervia PEPCs were determined using PEPC coupled spectrophotometric assay. The amount of NADH oxidized by NADH-malate dehydrogenase was measured by the decrease in absorbance at 340 nm in a Beckman DU-800 spectrophotometer, thus the value is in proportion to the corresponding substrate conversion of the enzyme. The reaction mixture included the PEPC enzymes (0.05 U), NADH (150 μM), malate dehydrogenase (2 U) and different concentration of compounds in the buffer containing 50 mM HEPES/KOH pH 7.5, 10 mM MgCl2, 10 mM KHCO3 in a final volume of 600 μl at 25 °C. The reactions were started by adding two folds of the Km value of PEP for each enzyme. The data were analyzed using GraFit (Erithacus Software, UK).

[1] = tested on: Pseudomonas putida KT2440; test: Bacterial growth in microscale cultivation, P. putida; format: cell-based; settings: for activity at 8 µM / activity at 80 µM / activity at 400 µM / activity at 4 µM / activity at 40 µM / activity at 0.1 µM / activity at 1 µM / activity at 10 µM: Pseudomonas putida; for activity at 8 µM / activity at 80 µM / activity at 400 µM / Lag Phase / activity at 4 µM / activity at 40 µM / activity at 0.1 µM / activity at 1 µM / activity at 10 µM: relative to control
Protocol: The following bacteria were cultivated in the presence of trans-chalcone derived inhibitors: Corynebacterium glutamicum ATCC13032[43], Escherichia coli K-12 MG1655[44], Pseudomonas putida KT2440[45], and Bacillus subtilis 168[46]. The growth of these bacteria was monitored in flower-well plates shaken at 1200 rpm as backscatter at 620 nm (gain 20) using a BioLector® microscale cultivation system (m2p labs, Baesweiler, Germany). For further experimental details please refer to the Supplementary Information.
medium or the appropriate minimal medium and shaken at 140 rpm overnight. For inoculation of
the main culture, cells equivalent to an optical density at 600 nm of 0.5 (C. glutamicum, E. coli,
and P. putida) or 0.25 (B. subtilis) in 800 µL medium were washed and resuspended in fresh
media. Inhibitor substances were dissolved in DMSO and added to the media to a final
Since the least polar trans-chalcone and 2’-hydroxychalcone precipitated in the growth media at
the highest concentrations, the maximal concentration of these compounds was reduced to 400
µM and 100 µM, respectively. The final backscatter at 620 nm, the growth rate (h-1), and the
duration of the lag phase of all cultures were determined in a BioLector microscale cultivation
system in comparison to negative controls supplemented with the solvent DMSO. A longer lag

[2] = KT2440, complex medium, 400 µM, read-out: Final Backscatter
[3] = KT2440, complex medium, 400 µM, read-out: Growth rate
[4] = KT2440, minimal medium, 400 µM, read-out: Final Backscatter
[5] = KT2440, minimal medium, 400 µM, read-out: Growth rate
[6] = KT2440, complex medium, 4 µM, read-out: Final Backscatter
[7] = KT2440, complex medium, 4 µM, read-out: Growth rate
[8] = KT2440, complex medium, 40 µM, read-out: Final Backscatter
[9] = KT2440, complex medium, 40 µM, read-out: Growth rate
[10] = KT2440, minimal medium, 4 µM, read-out: Final Backscatter
[11] = KT2440, minimal medium, 4 µM, read-out: Growth rate
[12] = KT2440, minimal medium, 40 µM, read-out: Final Backscatter
[13] = KT2440, minimal medium, 40 µM, read-out: Growth rate
[14] = read-out: IC50 F. pringlei PEPC

Row | SMILES | IC50 (F. pringlei PEPC; IC50 F. pringlei PEPC) [µM] | activity at 400 µM [1, 2] [%] | activity at 400 µM [1, 3] [%] | activity at 400 µM [1, 4] [%] | activity at 400 µM [1, 5] [%] | Lag Phase ([1]; complex medium, 400 µM) | Lag Phase ([1]; minimal medium, 400 µM) | activity at 4 µM [1, 6] [%] | activity at 4 µM [1, 7] [%] | activity at 40 µM [1, 8] [%] | activity at 40 µM [1, 9] [%] | activity at 4 µM [1, 10] [%] | activity at 4 µM [1, 11] [%] | activity at 40 µM [1, 12] [%] | activity at 40 µM [1, 13] [%] | Lag Phase ([1]; complex medium, 4 µM) | Lag Phase ([1]; complex medium, 40 µM) | Lag Phase ([1]; minimal medium, 4 µM) | Lag Phase ([1]; minimal medium, 40 µM) | IC50 (F. pringlei PEPC; [14]) [µM] | also measured
1 | O=C(/C=C/c1ccccc1)c1ccccc1 [Compound 1, trans-Chalcone] | 119 ± 4.6 | 97.3 | 103 | 100 | 119 | 103,0% | 98,1% | – | – | – | – | – | – | – | – | – | – | – | – | – | activity at 8 µM ([1]; KT2440, complex medium, 8 µM, read-out: Final Backscatter): 95.3%; activity at 8 µM ([1]; KT2440, complex medium, 8 µM, read-out: Growth rate): 98.4%; activity at 80 µM ([1]; KT2440, complex medium, 80 µM, read-out: Final Backscatter): 96.7%; activity at 80 µM ([1]; KT2440, complex medium, 80 µM, read-out: Growth rate): 100%; activity at 8 µM ([1]; KT2440, minimal medium, 8 µM, read-out: Final Backscatter): 94.4%; activity at 8 µM ([1]; KT2440, minimal medium, 8 µM, read-out: Growth rate): 112%; activity at 80 µM ([1]; KT2440, minimal medium, 80 µM, read-out: Final Backscatter): 94.2%; activity at 80 µM ([1]; KT2440, minimal medium, 80 µM, read-out: Growth rate): 113%; Lag Phase ([1]; complex medium, 8 µM): 100,6%; Lag Phase ([1]; complex medium, 80 µM): 101,8%; Lag Phase ([1]; minimal medium, 8 µM): 98,9%; Lag Phase ([1]; minimal medium, 80 µM): 99,3%
2 | O=C(/C=C/c1ccc(O)cc1)c1ccc(O)cc1O [Compound 6, 2′,4′,4-Trihydroxychalcone] | 57.8 ± 1.1 | 99.9 | 100 | 117 | 104 | 107,3% | 107,8% | 97.7 | 104 | 97.2 | 106 | 99 | 104 | 103 | 106 | 99,4% | 101,7% | 103,3% | 105,6% | – | –
3 | O=C(/C=C/c1ccccc1)c1ccc(O)cc1O [Compound 4, 2′,4′-Dihydroxychalcone] | – | 100 | 101 | 107 | 93.9 | 123,2% | 97,7% | 97.8 | 101 | 102 | 100 | 102 | 94.1 | 102 | 98.3 | 105,0% | 106,6% | 108,7% | 108,3% | 53 ± 1.1 | lag phase ([1]; 400 μM): slight increase in the lag phase
4 | O=C(/C=C/c1ccc(O)cc1)c1ccccc1O [Compound 3, 2′,4-Dihydroxychalcone] | – | 99.5 | 108 | 110 | 106 | 98,5% | 103,2% | 99.6 | 103 | 103 | 106 | 97.4 | 95.3 | 101 | 97.1 | 97,7% | 98,5% | 102,8% | 101,6% | 64.2 ± 2.8 | –
5 | O=C(/C=C/c1ccc(O)c(O)c1)c1ccc(O)c(O)c1O [Compound 12, 2′,3′,4′,3,4-Pentahydroxy-chalcone] | 26.8 ± 3.5 | – | – | – | – | – | – | – | – | – | – | – | – | – | – | – | – | – | – | – | activity at 0.1 µM ([1]; KT2440, complex medium, 0.1 µM, read-out: Final Backscatter): 97.8%; activity at 0.1 µM ([1]; KT2440, complex medium, 0.1 µM, read-out: Growth rate): 104%; activity at 1 µM ([1]; KT2440, complex medium, 1 µM, read-out: Final Backscatter): 98.2%; activity at 1 µM ([1]; KT2440, complex medium, 1 µM, read-out: Growth rate): 103%; activity at 10 µM ([1]; KT2440, complex medium, 10 µM, read-out: Final Backscatter): 98.6%; activity at 10 µM ([1]; KT2440, complex medium, 10 µM, read-out: Growth rate): 99.7%; activity at 0.1 µM ([1]; KT2440, minimal medium, 0.1 µM, read-out: Final Backscatter): 92.5%; activity at 0.1 µM ([1]; KT2440, minimal medium, 0.1 µM, read-out: Growth rate): 105%; activity at 1 µM ([1]; KT2440, minimal medium, 1 µM, read-out: Final Backscatter): 93.6%; activity at 1 µM ([1]; KT2440, minimal medium, 1 µM, read-out: Growth rate): 104%; activity at 10 µM ([1]; KT2440, minimal medium, 10 µM, read-out: Final Backscatter): 99.3%; activity at 10 µM ([1]; KT2440, minimal medium, 10 µM, read-out: Growth rate): 100%; Lag Phase ([1]; complex medium, 0.1 µM): 103,3%; Lag Phase ([1]; complex medium, 1 µM): 103,9%; Lag Phase ([1]; complex medium, 10 µM): 105,9%; Lag Phase ([1]; minimal medium, 0.1 µM): 108,8%; Lag Phase ([1]; minimal medium, 1 µM): 106,1%; Lag Phase ([1]; minimal medium, 10 µM): 100,0%
6 | O=C(/C=C/c1ccccc1O)c1ccc(O)cc1O [Compound 7, 2′,4′,2-Trihydroxychalcone] | – | 99.9 | 99.6 | 99.8 | 106 | 100,0% | 95,6% | 99.1 | 100 | 95.3 | 101 | 101 | 98.3 | 100 | 94.3 | 100,0% | 100,0% | 111,6% | 101,6% | 64.4 ± 1.1 | –
